Assay results from PMC6387077, “Interaction of Halictine-Related Antimicrobial Peptides with Membrane Models” (International Journal of Molecular Sciences, 2019).

Tests used:
red blood cells = details: hemolytic activity against red blood cells; ref [19]; cited from earlier work
Excerpt: (§1) Table 1 Amino acid sequences, physico-chemical and biological properties (µH is the hydrophobic moment, and H represents the mean hydrophobicity, calculated according to [27]), of the studied antibacterial HAL-1 peptides. Data were taken from ref. [19]. Point mutations with respect to the natural HAL-1 peptide are underlined. The Schiffer−Edmundson wheel projection of the HAL-1 and its analogs | column: Hemolytic LC50 (µM)

Bacillus subtilis = details: ref [19]; cited from earlier work
Excerpt: as §1, with “Antimicrobial Activity MIC” for “Hemolytic LC50”, “(µM) / B.^1” for “(µM)”

Escherichia coli = details: ref [19]; cited from earlier work
Excerpt: as §1, with “Antimicrobial Activity MIC” for “Hemolytic LC50”, “(µM) / E.^3” for “(µM)”

Staphylococcus aureus = details: ref [19]; cited from earlier work
Excerpt: as §1, with “Antimicrobial Activity MIC” for “Hemolytic LC50”, “(µM) / S.^2” for “(µM)”

Pseudomonas aeruginosa = details: ref [19]; cited from earlier work
Excerpt: as §1, with “Antimicrobial Activity MIC” for “Hemolytic LC50”, “(µM) / P.^4” for “(µM)”

[1] = Concentration dependence of ECD and VCD spectra (aggregation); assay type: physicochemical; details: aqueous solution, 100 mg/mL peptide, room temperature, ECD and VCD read-out
Excerpt: In order to clarify the discrepancy between the results of the peptide conformational analyses obtained by ECD and IR, we have complemented our study by a measurement of concentration dependencies of ECD spectra of the HAL-1 peptides (Figure 9). […] In order to determine the peptide conformational change induced by its high concentration more specifically, we have performed measurements of VCD spectra of the peptides (Figure 10) using the highest peptide concentration studied by ECD (i.e., 100 mg/mL). VCD measurements supported the results of ECD analysis, confirming that at high peptide concentration, HAL-1 and its analogs HAL-1/6, HAL-1/10, and HAL-1/20 spontaneously form the α-helical structure, indicated by a negative/positive VCD couplet in the amide I region. On the contrary, the HAL-1/2 analog (Figure 10b) seems to undergo a distinct conformational change, forming highly organized β-sheet aggregates (β-sheet fibrils) characterized by an intense five-peak VCD signal with the (−/−/+/−/−) sign pattern in the amide I and II region. […]
Concentration dependence was measured for all the peptides at the given concentrations: 0.1, 10, and 100 mg/mL. […] The α-helical fraction was calculated using a two-state model. […]
VCD spectra were measured on a dual source and dual photo-elastic modulator [67] […]

GMWSKILGHLIR [HAL-1]
Hemolytic LC50 (red blood cells): 82 µM | Antimicrobial Activity MIC B. (Bacillus subtilis): 0.8 µM | Antimicrobial Activity MIC E. (Escherichia coli): 3.8 µM | Antimicrobial Activity MIC S. (Staphylococcus aureus): 7.7 µM | Antimicrobial Activity MIC P. (Pseudomonas aeruginosa): 45.0 µM

GMWKKILGKLIR [HAL-1/10, HAL-1 analog, Ser4 and His9 substituted by Lys]
Hemolytic LC50 (red blood cells): >200 µM | Antimicrobial Activity MIC B. (Bacillus subtilis): 0.8 µM | Antimicrobial Activity MIC E. (Escherichia coli): 2.3 µM | Antimicrobial Activity MIC S. (Staphylococcus aureus): 15.0 µM | Antimicrobial Activity MIC P. (Pseudomonas aeruginosa): 13.1 µM

GKWSKILGKLIR [HAL-1/20, HAL-1 analog, Met2 and His9 substituted by Lys]
Hemolytic LC50 (red blood cells): >200 µM | Antimicrobial Activity MIC B. (Bacillus subtilis): 1.7 µM | Antimicrobial Activity MIC E. (Escherichia coli): 2.3 µM | Antimicrobial Activity MIC S. (Staphylococcus aureus): 21.7 µM

GMWSKILGPLIR [HAL-1/2, HAL-1 analog, His9 substituted by Pro]
Hemolytic LC50 (red blood cells): >200 µM | Antimicrobial Activity MIC B. (Bacillus subtilis): 3.6 µM | Antimicrobial Activity MIC E. (Escherichia coli): 30.0 µM | Antimicrobial Activity MIC S. (Staphylococcus aureus): >100 µM | Antimicrobial Activity MIC P. (Pseudomonas aeruginosa): >100 µM | Aggregation at high peptide concentration [1]: form β-aggregates

GMWSKILGHLIK [HAL-1/6, HAL-1 analog, Arg12 replaced by Lys]
Hemolytic LC50 (red blood cells): 132 µM | Antimicrobial Activity MIC B. (Bacillus subtilis): 1.3 µM | Antimicrobial Activity MIC E. (Escherichia coli): 7.2 µM | Antimicrobial Activity MIC S. (Staphylococcus aureus): 15.8 µM | Antimicrobial Activity MIC P. (Pseudomonas aeruginosa): 65.0 µM
